Assay results: patent US20090018111A1, “Novel Antimicrobial Medicament” (priority 2004, published 2009)
Like-named read-outs stand apart in the source and are kept apart here.

Tests used:
Assay in all cases: Sensitivity test (agar dilution)
[1] = tested on: S. aureus 209P; assay type: cell-based, Staphylococcus aureus; conditions: Staphylococcus aureus, 209P, S. aureus 209P
Experimental: (§1) The antibacterial activities were tested against various 18 bacteria (27 standard strains) which are representative bacteria caused clinically infectious disease (Staphylococcus aureus 3 strains, Staphylococcus epidermidis 1 strain, Micrococcus luteus 1 strain, Streptococcus pyogenes 1 strain, Enterococcus faecalis 1 strain, Enterococcus faecium 1 strain, Bacillus subtilis 1 strain, Escherichia coli 3 strains, Klebsiella pneumoniae 1 strain, Proteus mirabilis 1 strain, Proteus vulgaris 2 strains, Pseudomonas aeruginosa 3 strains, Serratia marcescens 2 strains, Enterobacter aerogenes 1 strain, Stenotrophomonas maltophilia 1 strain, Enterobacter cloacae 1 strain, Citrobacter freundii 1 strain, Moraxella catarrhalis 2 strains).
(§2) According to the standard method of Japan Chemotherapeutic Society (Chemotherapy, vol. […], p 76-79 (1981)) the test was carried out using the agar dilution method. After dissolving test samples in distilled water, agar medium containing the test samples was prepared in such a manner that the final concentration became twice serial dilution by pouring serially diluted combination drug solution or a single drug solution into agar medium. As agar medium was used Mueller Hinton Agar medium (MHA). Then, each strain was cultivated over night at 37° C. in an incubator and suspended in buffered saline solution with gelatin (BSG) in the concentration of about 10^6 CFU/ml. The suspension (about 5 μl) containing test strains was inoculated to the medium containing the test samples by Micro Planter.
(§3) When the sample is subjected to sensitivity test, this mixed solution was diluted by twice serial dilution method.
(§4) Furthermore, when the drug is solely used, each test sample was used as it is, and diluted by twice serial dilution method from the maximum concentration to the minimum concentration.
(§5) FIC index based on MIC value was calculated. […] Namely, when FIC index calculated by the following formula is equal or less than 1, the enhanced effect of the combination drug in said ratio is considered as positive. When FIC index is over 1, the enhanced effect of the combination drug in said ratio is considered as negative.
(§6) Formula of FIC index: FIC index=(MIC of Drug A in combination/MIC of Drug A alone)+(MIC of Drug B in combination/MIC of Drug B alone) N.C. in tables means being not calculated.

[2] = tested on: S. aureus MS94088 (hetero-MRSA); assay type: cell-based, Staphylococcus aureus; conditions: Staphylococcus aureus, MRSA, S. aureus MS94088 (hetero-MRSA)
Experimental: as §1, §2, §3, §4, §5, §6

[3] = tested on: S. aureus SP-7928 (homo-MRSA); assay type: cell-based, Staphylococcus aureus; conditions: Staphylococcus aureus, MRSA, S. aureus SP-7928 (homo-MRSA)
Experimental: as §1, §2, §3, §4, §5, §6

[4] = tested on: S. epidermidis IAM1296; assay type: cell-based, Staphylococcus epidermidis; conditions: Staphylococcus epidermidis, S. epidermidis IAM1296
Experimental: as §1, §2, §3, §4, §5, §6

[5] = tested on: Str. pyogenes Cook; assay type: cell-based, Streptococcus pyogenes; conditions: Streptococcus pyogenes, Str. pyogenes Cook
Experimental: as §1, §2, §3, §4, §5, §6

[6] = tested on: E. faecium ATCC19434; assay type: cell-based, Enterococcus faecium; conditions: Enterococcus faecium, E. faecium ATCC19434
Experimental: as §1, §2, §3, §4, §5, §6

[7] = tested on: P. vulgaris GN7919; assay type: cell-based, Proteus vulgaris; conditions: Proteus vulgaris, P. vulgaris GN7919
Experimental: as §1, §2, §3, §4, §5, §6

[8] = tested on: P. vurgalis OX-19; assay type: cell-based, Proteus vulgaris; conditions: Proteus vulgaris, P. vurgalis OX-19
Experimental: as §1, §2, §3, §4, §5, §6

[9] = tested on: E. cloacae GN7471; assay type: cell-based, Enterobacter cloacae; conditions: Enterobacter cloacae, E. cloacae GN7471
Experimental: as §1, §2, §3, §4, §5, §6

[10] = tested on: C. freundii GN346; assay type: cell-based, Citrobacter freundii; conditions: Citrobacter freundii, C. freundii GN346
Experimental: as §1, §2, §3, §4, §5, §6

[11] = tested on: S. maltophilia IID1275; assay type: cell-based, Stenotrophomonas maltophilia; conditions: Stenotrophomonas maltophilia, S. maltophilia IID1275
Experimental: as §1, §2, §3, §4, §5, §6

[12] = tested on: M. catarrhalis ATCC25238; assay type: cell-based, Moraxella catarrhalis; conditions: Moraxella catarrhalis, M. catarrhalis ATCC25238
Experimental: as §1, §2, §3, §4, §5, §6

[13] = tested on: M. catarrhalis ATCC8176; assay type: cell-based, Moraxella catarrhalis; conditions: Moraxella catarrhalis, M. catarrhalis ATCC8176
Experimental: as §1, §2, §3, §4, §5, §6

[14] = Concomitant (AZT:SM = 1:1), read-out: MIC concomitant
[15] = drug alone, read-out: MIC alone
[16] = IAM1296, drug alone, read-out: MIC alone
[17] = ATCC19434, drug alone, read-out: MIC alone
[18] = GN7919, drug alone, read-out: MIC alone
[19] = OX19, drug alone, read-out: MIC alone
[20] = GN7471, drug alone, read-out: MIC alone
[21] = GN346, drug alone, read-out: MIC alone
[22] = IID1275, drug alone, read-out: MIC alone
[23] = ATCC25238, drug alone, read-out: MIC alone
[24] = ATCC8176, drug alone, read-out: MIC alone
[25] = Concomitant (BIPM:SM = 1:1), read-out: MIC concomitant
[26] = Concomitant (CAZ:SM = 1:1), read-out: MIC concomitant

Row | SMILES | MIC [1, 15] [ng/mL] | MIC [2, 15] [µg/mL] | MIC [3, 15] [µg/mL] | MIC [4, 16] [µg/mL] | MIC [5, 15] [ng/mL] | MIC [6, 17] [µg/mL] | MIC [7, 18] [µg/mL] | MIC [8, 19] [µg/mL] | MIC [9, 20] [µg/mL] | MIC [10, 21] [µg/mL] | MIC [11, 22] [µg/mL] | MIC [12, 23] [µg/mL] | MIC [13, 24] [µg/mL] | also measured
1 | C[C@H]1[C@H](NC(=O)/C(=N\OC(C)(C)C(=O)O)c2csc(N)n2)C(=O)N1S(=O)(=O)O [AZT, aztreonam] | > 32000 | > 32 | > 32 | > 32 | 16000 | > 32 | 0.125 | 0.004 | 16 | 0.5 | > 32 | 0.125 | 0.25 | MIC [1, 14]: 8 ng/mL; MIC [2, 14]: 0.25 µg/mL; MIC [3, 14]: 2 µg/mL; MIC ([4]; IAM1296, Concomitant (AZT:SM = 1:1), read-out: MIC concomitant): 0.031 µg/mL; MIC [5, 14]: 4 ng/mL; MIC ([6]; ATCC19434, Concomitant (AZT:SM = 1:1), read-out: MIC concomitant): 0.125 µg/mL; MIC ([7]; GN7919, Concomitant (AZT:SM = 1:1), read-out: MIC concomitant): 0.25 µg/mL; MIC ([8]; OX19, Concomitant (AZT:SM = 1:1), read-out: MIC concomitant): 0.004 µg/mL; MIC ([9]; GN7471, Concomitant (AZT:SM = 1:1), read-out: MIC concomitant): 4 µg/mL; MIC ([10]; GN346, Concomitant (AZT:SM = 1:1), read-out: MIC concomitant): 8 µg/mL; MIC ([11]; IID1275, Concomitant (AZT:SM = 1:1), read-out: MIC concomitant): > 32 µg/mL; MIC ([12]; ATCC25238, Concomitant (AZT:SM = 1:1), read-out: MIC concomitant): ≤ 0.002 µg/mL; MIC ([13]; ATCC8176, Concomitant (AZT:SM = 1:1), read-out: MIC concomitant): ≤ 0.002 µg/mL
2 | C[C@@H](O)[C@H]1C(=O)N2C(C(=O)[O-])=C(SC3Cn4cnc[n+]4C3)[C@H](C)[C@H]12 (stereo partly drawn) [BIPM, biapenem] | 31 | 4 | > 32 | 1 | 8 | 16 | 0.5 | 0.25 | 0.063 | 0.25 | > 32 | 0.016 | 0.031 | MIC [1, 25]: 8 ng/mL; MIC [2, 25]: 0.25 µg/mL; MIC [3, 25]: 2 µg/mL; MIC ([4]; IAM1296, Concomitant (BIPM:SM = 1:1), read-out: MIC concomitant): 0.031 µg/mL; MIC [5, 25]: 4 ng/mL; MIC ([6]; ATCC19434, Concomitant (BIPM:SM = 1:1), read-out: MIC concomitant): 0.25 µg/mL; MIC ([7]; GN7919, Concomitant (BIPM:SM = 1:1), read-out: MIC concomitant): 0.25 µg/mL; MIC ([8]; OX19, Concomitant (BIPM:SM = 1:1), read-out: MIC concomitant): 0.031 µg/mL; MIC ([9]; GN7471, Concomitant (BIPM:SM = 1:1), read-out: MIC concomitant): 0.063 µg/mL; MIC ([10]; GN346, Concomitant (BIPM:SM = 1:1), read-out: MIC concomitant): 0.125 µg/mL; MIC ([11]; IID1275, Concomitant (BIPM:SM = 1:1), read-out: MIC concomitant): > 32 µg/mL; MIC ([12]; ATCC25238, Concomitant (BIPM:SM = 1:1), read-out: MIC concomitant): ≤ 0.002 µg/mL; MIC ([13]; ATCC8176, Concomitant (BIPM:SM = 1:1), read-out: MIC concomitant): ≤ 0.002 µg/mL
3 | CC(C)(O/N=C(\C(=O)N[C@@H]1C(=O)N2C(C(=O)[O-])=C(C[n+]3ccccc3)CS[C@H]12)c1csc(N)n1)C(=O)O [CAZ, ceftazidime] | 8000 | > 32 | > 32 | > 32 | 125 | > 32 | 0.5 | 0.031 | 32 | 1 | > 32 | 0.016 | 0.016 | MIC [1, 26]: 4 ng/mL; MIC [2, 26]: 0.25 µg/mL; MIC [3, 26]: 1 µg/mL; MIC ([4]; IAM1296, Concomitant (CAZ:SM = 1:1), read-out: MIC concomitant): 0.031 µg/mL; MIC [5, 26]: 4 ng/mL; MIC ([6]; ATCC19434, Concomitant (CAZ:SM = 1:1), read-out: MIC concomitant): 0.125 µg/mL; MIC ([7]; GN7919, Concomitant (CAZ:SM = 1:1), read-out: MIC concomitant): 0.5 µg/mL; MIC ([8]; OX19, Concomitant (CAZ:SM = 1:1), read-out: MIC concomitant): 0.008 µg/mL; MIC ([9]; GN7471, Concomitant (CAZ:SM = 1:1), read-out: MIC concomitant): 8 µg/mL; MIC ([10]; GN346, Concomitant (CAZ:SM = 1:1), read-out: MIC concomitant): 8 µg/mL; MIC ([11]; IID1275, Concomitant (CAZ:SM = 1:1), read-out: MIC concomitant): > 32 µg/mL; MIC ([12]; ATCC25238, Concomitant (CAZ:SM = 1:1), read-out: MIC concomitant): ≤ 0.002 µg/mL; MIC ([13]; ATCC8176, Concomitant (CAZ:SM = 1:1), read-out: MIC concomitant): ≤ 0.002 µg/mL
